Assay [1] concerns Mycobacterium tuberculosis. Nature of the assay: Antitubercular activity against Mycobacterium tuberculosis H37Rv ATCC 27294 in glycerol-alanine-salts medium after 7 days by Microplate Alamar Blue assay. Format: functional. Particulars: H37Rv ATCC 27294, 168 h.
Assay [2] deals with Mycobacterium tuberculosis. Description: Antitubercular activity against Mycobacterium tuberculosis H37Rv ATCC 27294 in 7H12 medium after 7 days by Microplate Alamar Blue assay. Format: functional. As to conditions: H37Rv ATCC 27294, 168 h. For orientation: Resazurin is reduced to fluorescent resorufin, in cell work by metabolically active cells.
Assay [3] deals with Mycolicibacterium smegmatis. Description: Antimycobacterial activity against Mycobacterium smegmatis by broth microdilution assay. Format: functional. On the technique in general: Broth dilution looks for growth in wells or tubes with falling amounts of substance.
The test system of a further assay is Candida albicans. Description: Antimicrobial activity against Candida albicans by broth microdilution assay. Format: functional.
In a further assay the test system is Mycobacterium kansasii. Description: Antimycobacterial activity against Mycobacterium kansasii ATCC 12478 in 7H9 medium after 6 days and 18 hrs after adding resazurin dye/Tween 80 by Microplate Alamar Blue assay. The format is functional.
The test system of another assay is Mycobacterium avium. Description: Antimycobacterial activity against Mycobacterium avium ATCC 15769 in 7H9 medium after 6 days and 18 hrs after adding resazurin dye/Tween 80 by Microplate Alamar Blue assay. The format is functional.
Another assay concerns Escherichia coli. Nature of the assay: Antimicrobial activity against Escherichia coli by broth microdilution assay. Format: functional.
For assay [4], the system named is Mycobacteroides abscessus. Nature of the assay: Antimycobacterial activity against Mycobacterium abscessus ATCC 19977 in 7H9 medium after 3 days and 4 hrs after adding resazurin dye/Tween 80 by Microplate Alamar Blue assay. Format: functional.
Assay [5] concerns Mycobacterium tuberculosis. Nature of the assay: Antitubercular activity against Mycobacterium tuberculosis H37Rv transfected with pFCA-luxAB in 7H12 medium after 10 days by low-oxygen recovery assay. Format: functional. As to conditions: 240 h.
The next assay deals with Mycobacteroides chelonae. Nature of the assay: Antimycobacterial activity against Mycobacterium chelonae ATCC 35752 in 7H9 medium after 3 days and 4 hrs after adding resazurin dye/Tween 80 by Microplate Alamar Blue assay. Format: functional.
For another assay, the system named is Mycobacterium marinum. Description: Antimycobacterial activity against Mycobacterium marinum ATCC 927 in 7H9 medium after 5 days and 6 hrs after adding resazurin dye/Tween 80 by Microplate Alamar Blue assay. The format is functional.
The test system of a further assay is Staphylococcus aureus. Nature of the assay: Antimicrobial activity against Staphylococcus aureus by broth microdilution assay. Format: functional.
The next assay concerns Vero. Nature of the assay: Cytotoxicity against African green monkey Vero cells assessed as cell viability after 72 hrs by CellTiter 96 assay. Format: cell-based. As to conditions: Chlorocebus sabaeus.

Converted amounts (≈) assume the structure as drawn.

The MIC90 is the lowest concentration that inhibits either 90% of growth or 90% of the strains tested, depending on the study. As for `Cc1cnc2nc(C)c(C(=O)OCc3ccccc3)n2c1`, the MIC90 in assay [1] is 1.4 µM; in [2] it was 1.4 µM (≈ 0.394 µg/mL).
By MIC is commonly meant the least concentration at which growth counts as inhibited. By IC50 is commonly meant the point on the concentration scale where inhibition reaches its midpoint. For `Cc1ccc2nc(C)c(C(=O)NCc3ccccc3)n2n1`, the MIC (in [3]; with Candida albicans; against Mycobacterium kansasii; in the assay with Mycobacterium avium; with Escherichia coli; in assay [4]) was over 128 µM each time. Moreover, the MIC with Mycobacteroides chelonae, in the assay on Mycobacterium marinum and against Staphylococcus aureus was over 128 µM throughout. Moreover, the MIC90 in assay [1] was 63.8 µM; in assay [2], over 128 µM; in assay [5], over 128 µM. For the same compound, the IC50 with Vero was found to be 24.7 µM.
For `Cc1ccc2nc(C)c(C(=O)NCc3ccccc3)n2c1`, the MIC in assay [3] was over 128 µM; against Candida albicans, over 128 µM; with Mycobacterium kansasii, 4 µM (≈ 1.12 µg/mL); in the assay on Mycobacterium avium, 15.7 µM (≈ 4.39 µg/mL); against Escherichia coli, over 128 µM; in assay [4], over 128 µM. In addition, the MIC is 94 µM (≈ 26.3 µg/mL) against Mycobacteroides chelonae, over 128 µM against Mycobacterium marinum and over 128 µM in the assay with Staphylococcus aureus. In addition, the MIC90 in assay [1] is 0.11 µM; in assay [2], 0.49 µM (≈ 0.137 µg/mL); in [5] it was over 128 µM. In the assay with Vero, the IC50 is over 128 µM.
Turning to `Cc1cc(C)n2nc(C(=O)NCc3ccccc3)nc2n1`, the minimal inhibitory concentration (MIC) (in assay [3]; in the assay with Candida albicans; against Mycobacterium kansasii; with Mycobacterium avium; with Escherichia coli; in assay [4]) was over 128 µM each time. Further, the MIC in the assay with Mycobacteroides chelonae, against Mycobacterium marinum and in the assay on Staphylococcus aureus was over 128 µM in each case. The MIC90 in assay [1] is 126 µM; in assay [2], over 128 µM; in assay [5], over 128 µM. In addition, the IC50 in the assay with Vero is over 128 µM.
In the case of `Cc1ccc2c(C(=O)NCc3ccccc3)n[nH]c2c1`, the MIC (in assay [3]; in the assay with Candida albicans; with Mycobacterium kansasii; with Mycobacterium avium; in the assay on Escherichia coli; in assay [4]) was over 128 µM throughout. In addition, the MIC in the assay with Mycobacteroides chelonae, against Mycobacterium marinum and against Staphylococcus aureus was over 128 µM each time. Further, the MIC90 in [1] is 40.8 µM; in assay [2] it was over 128 µM; in assay [5], over 128 µM. The IC50 in the assay on Vero is over 128 µM.
Take `Cc1cnc2nc(C)c(C(=O)NCc3ccccc3)n2c1`: the MIC in [3] was over 128 µM; in the assay on Candida albicans it was over 128 µM; in the assay on Mycobacterium kansasii, 18.7 µM (≈ 5.24 µg/mL); with Mycobacterium avium it was 122 µM (≈ 34.2 µg/mL); in the assay on Escherichia coli it was over 128 µM; in assay [4] it was over 128 µM. Moreover, the MIC in the assay on Mycobacteroides chelonae, against Mycobacterium marinum and against Staphylococcus aureus was over 128 µM each time. The MIC90 is 1.27 µM in assay [1], 6.95 µM (≈ 1.95 µg/mL) in assay [2] and over 128 µM in assay [5]. The IC50 with Vero is over 128 µM.
In the case of `CO[C@H]1/C=C/O[C@@]2(C)Oc3c(C)c(O)c4c(O)c(c(/C=N/N5CCN(C)CC5)c(O)c4c3C2=O)NC(=O)/C(C)=C\C=C\[C@H](C)[C@H](O)[C@@H](C)[C@@H](O)[C@@H](C)[C@H](OC(C)=O)[C@@H]1C` [RIFAMPIN], the MIC90 in [1] is 0.11 µM; in [2], 0.06 µM (≈ 0.0494 µg/mL). For the same compound, the MIC with Mycobacterium kansasii was 0.03 µM (≈ 0.0247 µg/mL); in the assay on Mycobacterium avium, under 0.78 µM; in assay [4] it was 162 µM (≈ 133 µg/mL); in the assay on Mycobacteroides chelonae it was over 100 µM; in the assay with Mycobacterium marinum, 1.2 µM (≈ 0.988 µg/mL).
Consider `Cc1cc2nc(C)c(C(=O)OCc3ccccc3)n2c(C)n1`, for which the MIC90 in assay [1] was found to be 1.1 µM; in assay [2], 1.1 µM (≈ 0.325 µg/mL).
For the compound `COc1c(N2C[C@@H]3CCCN[C@@H]3C2)c(F)cc2c(=O)c(C(=O)O)cn(C3CC3)c12` [MOXIFLOXACIN], the minimum inhibitory concentration (MIC) worked out at 0.12 µM (≈ 0.0482 µg/mL) with Mycobacterium kansasii; 6.1 µM (≈ 2.45 µg/mL) with Mycobacterium avium; 22.4 µM (≈ 8.99 µg/mL) in assay [4]; 0.24 µM (≈ 0.0963 µg/mL) against Mycobacteroides chelonae; 12.4 µM (≈ 4.98 µg/mL) in the assay with Mycobacterium marinum.
Consider `NNC(=O)c1ccncc1` [ISONIAZID], for which the MIC was 9.1 µM (≈ 1.25 µg/mL) in the assay on Mycobacterium kansasii; over 500 µM with Mycobacterium avium; over 500 µM in assay [4]; over 500 µM in the assay on Mycobacteroides chelonae; over 1000 µM in the assay with Mycobacterium marinum.
Take `Cc1ccn2c(C(=O)NCc3ccccc3)nnc2c1`: the MIC (in assay [3]; in the assay with Candida albicans; with Mycobacterium kansasii; with Mycobacterium avium; with Escherichia coli; in assay [4]) was over 128 µM throughout. Besides, the MIC in the assay on Mycobacteroides chelonae, in the assay on Mycobacterium marinum and in the assay with Staphylococcus aureus was over 128 µM in each case. In addition, the MIC90 was 101 µM in [1], over 128 µM in assay [2] and over 128 µM in assay [5]. In addition, the IC50 in the assay on Vero was over 128 µM.
As to `O=[N+]([O-])c1cn2c(n1)OC[C@@H](OCc1ccc(OC(F)(F)F)cc1)C2` [PRETOMANID], the MIC90 in assay [1] is 0.12 µM; in [2], 0.09 µM (≈ 0.0323 µg/mL); in [5] it was 4.9 µM (≈ 1.76 µg/mL). Further, in the assay with Vero, the IC50 was over 128 µM.
Turning to `Cc1cn2c(C(=O)OCc3ccccc3)c(C)nc2cn1`, the MIC90 was determined as 2.3 µM in assay [1] and 2.3 µM (≈ 0.647 µg/mL) in assay [2].
In the case of `Cc1ccn2c(C)c(C(=O)NCc3ccccc3)nc2c1`, the MIC (in assay [3]; against Candida albicans; against Mycobacterium kansasii; in the assay with Mycobacterium avium; against Escherichia coli; in [4]) was over 128 µM each time. Moreover, the MIC against Mycobacteroides chelonae, in the assay with Mycobacterium marinum and in the assay on Staphylococcus aureus was over 128 µM in each case. The MIC90 is 70 µM in assay [1], over 128 µM in [2] and over 128 µM in assay [5]. In addition, in the assay on Vero, the IC50 was over 128 µM.
With `Cc1ccc2nc(C)c(C(=O)OCc3ccccc3)n2c1`, the MIC90 was 0.004 µM in assay [1] and 0.004 µM (≈ 0.00112 µg/mL) in [2].
Regarding `Cc1ccc2c(C(=O)NCc3ccccc3)c(C)[nH]c2c1`, the MIC (in assay [3]; in the assay on Candida albicans; with Mycobacterium kansasii; against Mycobacterium avium; with Escherichia coli; in assay [4]) was over 128 µM throughout. In addition, the MIC against Mycobacteroides chelonae, against Mycobacterium marinum and against Staphylococcus aureus was over 128 µM throughout. The figures for the MIC90 in assay [1], in [2] and in assay [5] were 43.8 µM, over 128 µM and over 128 µM, respectively. The IC50 in the assay on Vero was over 128 µM.
